The test system of assay [1] is adjuvant arthritic rats. Nature of the assay: Adjuvant arthritis model, Example 3 (rhuIL-1ra subcutaneous infusion, methotrexate dose range). Also noted: inhibition of final paw weight: dose or concentration left out as unconfirmed. Type of assay: in vivo, Male Lewis rats. The conditions noted are these: rhuIL-1ra alone. As for the experimental part: (§1) Male Lewis rats (Charles River, Portage, Mich.) (5-7/group) weighing at least 250-300 g were cannulated in the subcutis of the dorsal back and allowed to recover for several days. They were then placed in infusion cages and acclimated for at least 4 days prior to initiating adjuvant injections. On day-0, all rats were injected with 100 μl of Freunds Complete Adjuvant (Sigma Chemical Co., St. […] Body weights were taken on day 0 and every other day from day 8 to termination on day 15. Caliper measurements and clinical scoring were done on day 8 and every other day until termination. At this time the animals' body, paw and spleen weights were determined.

The test system of a further assay is EAE model. Nature of the assay: EAE model, second Example 4 (integrated clinical score, weight gain). Type of assay: in vivo, Female Strain 13 guinea pigs.
Assay [2] relates to adjuvant arthritic rats. Nature of the assay: Adjuvant arthritis model, first Example 4 (rhuIL-1ra 5 mg/kg/hr infusion, methotrexate dose range). Format: in vivo, Male Lewis rats. The conditions noted are these: rhuIL-1ra alone. Here is the method:
as §1

Assay [3] has as its system adjuvant arthritic rats. Nature of the assay: Adjuvant arthritis model, Example 1 (rhuIL-1ra IV infusion, oral methotrexate). Type of assay: in vivo, Male Lewis rats. As to conditions: rhuIL-1ra 5 mg/kg/hr continuous IV infusion from day 8; methotrexate 0.06 mg/kg oral days 0-14; termination day 15. As for the experimental part:
Male Lewis rats (Charles River, Portage, Mich.) (5 per group) weighing at least 200 g were cannulated with jugular catheters and allowed to recover for several days. They were then placed in infusion cages and acclimated for a week prior to initiating adjuvant injections. On day 0, all treated rats were injected with 100 μl of Freunds Complete Adjuvant (Sigma Chemical Co., St. […] On day 8, treatment with E. coli-derived human recombinant IL-1 receptor antagonist (prepared generally in accordance with the teachings of U.S. Pat. […] Body weights were taken on day 0 and every other day from day 8 to termination on day 15. Caliper measurements and clinical scoring were done on day 8 and every other day until termination. At this time the animals' body, paw and spleen weights were determined.

Assay [4] concerns adjuvant arthritic rats. Nature of the assay: Adjuvant arthritis model, Example 2 (rhuIL-1ra IV infusion, oral methotrexate). Type of assay: in vivo, Male Lewis rats. The conditions noted are these: rhuIL-1ra 5 mg/kg/hr continuous IV infusion from day 8; methotrexate 0.06 mg/kg oral days 0-14; termination day 15. Here is the method: as §1, with “200” for “250-300”, “with jugular catheters” for “in the subcutis of the dorsal back”, “one week” for “4 days”

Data on one substance can be found in patent US20090203609A1, “Use of IL-1 inhibitors for treating IL-1 mediated diseases” (AMGEN INC., priority 1996, published 2009).

On to “rhuIL-1ra: E. coli-derived human recombinant IL-1 receptor antagonist (SEQ ID NO:2), in citrate buffer formulation”, for which, in the assay with adjuvant arthritic rats [1], the “inhibition of bone resorption, histologic evaluation of ankle joints” value was determined as 53% and the “inhibition of inflammation, histologic evaluation of ankle joints” value was 8%. The “inhibition of swelling, ankle joint diameter over time (area under the curve)” value with adjuvant arthritic rats [1] (5 mg/ml/hr sc infusion) came to 6%. In addition, in the assay on adjuvant arthritic rats [1] (continuous subcutaneous infusion, days 8-15), the “inhibition of final paw weight” value came out at 6%. Moreover, in the assay with EAE model (rhuIL-1ra 10 mg/kg s.c. 3x a day from day 0, alone or with r-metIFN-con1 0.03 mg/kg s.c.), the “attenuation of clinical symptoms/signs (integrated clinical score)” value is listed as 49%. In the assay on EAE model (rhuIL-1ra 100 mg/kg s.c. 3x a day from day 0, alone or with r-metIFN-con1 0.03 mg/kg s.c.), the “attenuation of clinical symptoms/signs (integrated clinical score)” value is given as 53%. For the same substance, in the assay on adjuvant arthritic rats [2], the “inhibition of bone resorption, histologic evaluation of ankle joints” value was 53% and the “inhibition of inflammation, histologic evaluation of ankle joints” value was 8%. Moreover, in the assay with adjuvant arthritic rats [2] (5 mg/kg/hr infusion), the “inhibition of swelling, ankle joint diameter over time (area under the curve)” value amounted to 6%. Moreover, the “inhibition of final paw weight” value with adjuvant arthritic rats [2] (continuous subcutaneous infusion 5 mg/kg/hr, days 8-15) amounted to 6%. Moreover, in the assay with adjuvant arthritic rats [3], the “inhibition of arthritis (paw swelling)” value came to 57%, the “inhibition of body weight change” value amounted to 25% and the “inhibition of splenomegaly (spleen weight)” value is on record as “no significant benefit”. Moreover, in the assay on adjuvant arthritic rats [4], the “inhibition of body weight change” value is “no inhibition”, the “inhibition of paw swelling” value stood at 22% and the inhibition of splenomegaly was determined as 24%.
